Measurements: US11999727B2 (Tango Therapeutics, Inc., priority 2020, dated 2024)
Where two headings read alike, the source gives them in different places.

Key:
PRMT5 [1] = target: T1, PRMT5 (Homo sapiens, UniProt O14744); assay: PRMT5 biochemical IC50 assay with no cofactor; settings: PRMT5, no cofactor
T1 construct: purchased Viva (custom protein)
From the text: Table 1 indicates IC50 values (μM) against PRMT5 for exemplary compounds in the presence of SAM as cofactor, with no cofactor, and with MTA as cofactor, respectively (columns 4-6). […] Ki values can be calculated from the IC50 values as described in the Examples section. As detailed in the Examples section, for the assay performed in the presence of SAM, IC50=Ki×1.5 (Ki=IC50/1.5).

PRMT5 [2] = target: T1, PRMT5; assay: PRMT5 biochemical IC50 assay with MTA as cofactor; settings: PRMT5, MTA as cofactor; read-out: MTA IC50
PRMT5 [3] = target: T1, PRMT5; assay: PRMT5 biochemical IC50 assay with SAM as cofactor; settings: PRMT5, SAM as cofactor; read-out: SAM IC50
[4] = system: HAP1 MTAP-intact cell line; assay: SDMA in-cell western assay, HAP1 MTAP-intact; format: cell-based; settings: Homo sapiens
Procedure, shortened: (§1)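 IC50 values come from SDMA signal quantified by in-cell western in two HAP1 lines, one with native MTAP levels and one lacking MTAP.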

[5] = system: HAP1 MTAP-deleted cell line; assay: SDMA in-cell western assay, HAP1 MTAP-deleted; format: cell-based; settings: for MTAP intact/deleted ratio: IC50 ratio HAP1 MTAP-intact / HAP1 MTAP-deleted
Procedure, shortened: as §1

[6] = system: HAP1 MTAP-deleted cell line; assay: Viability assay, MTAP-deleted cell line; format: cell-based; settings: Homo sapiens, read-out: HAP1 MTAP deleted viability
From the text: Table 1 additionally indicates IC50 values in a viability assay for the MTAP-deleted cell line (column 10), indicating the effect of treatment with compound on cell survival.

[7] = HAP1, SDMA in-cell western, HAP1 MTAP-intact, read-out: MTAP HAP1 intact IC50
[8] = Homo sapiens, HAP1, SDMA in-cell western, HAP1 MTAP-deleted, read-out: HAP1 MTAP deleted IC50
[9] = Homo sapiens, HAP1, SDMA in-cell western, HAP1 MTAP-deleted, read-out: HAP 1 MTAP deleted IC50
[10] = read-out: No Cofactor/ rel IC50

T1 sequence (O14744 whole entry): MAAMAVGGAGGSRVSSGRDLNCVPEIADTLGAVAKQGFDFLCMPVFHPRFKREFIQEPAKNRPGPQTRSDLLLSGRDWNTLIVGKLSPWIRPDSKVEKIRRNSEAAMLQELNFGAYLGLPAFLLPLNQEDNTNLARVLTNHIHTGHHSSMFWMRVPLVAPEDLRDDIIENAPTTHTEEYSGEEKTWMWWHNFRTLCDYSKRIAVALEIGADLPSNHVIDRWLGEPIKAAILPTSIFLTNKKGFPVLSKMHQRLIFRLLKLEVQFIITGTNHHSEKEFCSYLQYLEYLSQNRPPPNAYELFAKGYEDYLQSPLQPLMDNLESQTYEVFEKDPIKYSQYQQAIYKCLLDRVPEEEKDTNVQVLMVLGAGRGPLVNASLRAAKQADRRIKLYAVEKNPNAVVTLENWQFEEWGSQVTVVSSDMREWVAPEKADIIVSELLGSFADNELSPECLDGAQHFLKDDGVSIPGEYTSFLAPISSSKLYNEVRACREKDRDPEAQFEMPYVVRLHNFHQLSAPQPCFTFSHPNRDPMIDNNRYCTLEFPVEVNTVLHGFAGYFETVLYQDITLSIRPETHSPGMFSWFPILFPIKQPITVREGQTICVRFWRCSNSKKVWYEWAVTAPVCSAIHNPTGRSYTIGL
T1 sequence (Q9BQA1 whole entry partner): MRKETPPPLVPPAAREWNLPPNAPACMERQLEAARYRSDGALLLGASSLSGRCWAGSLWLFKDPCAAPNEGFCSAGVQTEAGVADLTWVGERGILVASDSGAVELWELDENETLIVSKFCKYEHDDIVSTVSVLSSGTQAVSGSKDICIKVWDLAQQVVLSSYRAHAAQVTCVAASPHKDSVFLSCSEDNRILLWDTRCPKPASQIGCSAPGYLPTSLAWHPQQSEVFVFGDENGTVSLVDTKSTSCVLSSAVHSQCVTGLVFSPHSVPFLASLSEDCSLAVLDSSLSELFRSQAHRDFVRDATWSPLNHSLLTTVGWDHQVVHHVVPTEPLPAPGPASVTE

SMILES	IC50 (PRMT5 [1]; read-out: No Cofactor/rel IC50)	IC50 (PRMT5 [2])	IC50 (PRMT5 [3])	IC50 [4, 7]	IC50 [5, 8]	MTAP intact/deleted ratio ([5]; SDMA in-cell western)	IC50 [5, 9]	IC50 (PRMT5 [1]; [10])	IC50 ([6]; HAP1, viability assay, MTAP-deleted cell line)	IC50 ([5]; SDMA in-cell western, HAP1 MTAP-deleted, read-out: HAP1 MTAP deleted IC50)	IC50 ([4]; HAP1, read-out: MTAP HAP1 intact IC50)	IC50 ([5]; Homo sapiens, HAP1, read-out: HAP1 MTAP deleted IC50)	IC50 ([6]; HAP1, viability, HAP1 MTAP-deleted cell line)
Cc1cc(NC(=O)C(=O)N2C[C@H](C)CC[C@H]2C2CCCN(C)C2)cnc1N (mixture of isomers) [Compound 832, N-(6-amino-5-methyl-3-pyridyl)-2-[(2R,5S)-5-methyl-2-(1-methyl-3-piperidyl)-1-piperidyl]-2-oxo-acetamide]	> 0.5 µM	0.05 to 0.5 µM	> 0.5 µM	> 1 µM	> 1 µM	C (an IC50 ratio of less than 3 fold)							
Cc1cc(NC(=O)C(=O)N2C[C@H](C)CC[C@H]2c2ccc(NC3COC3)cc2)cnc1N (racemic) [Compound 1048]	0.05 to 0.5 µM	0.05 to 0.5 µM	0.05 to 0.5 µM	0.1 to 1 µM		B (an IC50 ratio greater than or equal to 3 fold but lower than 10 fold)	< 0.1 µM						
Cc1cc(NC(=O)C(=O)N2C[C@H](C)CC[C@H]2c2ccc(CC(F)(F)F)cc2)cnc1N (racemic) [Compound 1056]	0.05 to 0.5 µM	< 0.05 µM	0.05 to 0.5 µM	0.1 to 1 µM		C (an IC50 ratio of less than 3 fold)	0.1 to 1 µM						
Cc1cncc(NC(=O)C(=O)N2CCCC[C@H]2c2cccc(C)c2)c1 (single isomer, unassigned) [Compound 4]		0.05 to 0.5 µM	> 0.5 µM	> 1 µM		C (an IC50 ratio of less than 3 fold)	> 1 µM	> 0.5 µM					
Cc1cncc(NC(=O)C(=O)N2C[C@@H](C)CC[C@@H]2c2cccc(F)c2)c1 (single isomer, unassigned) [Compound 77]		> 0.5 µM		> 1 µM		C (an IC50 ratio of less than 3 fold)	> 1 µM	> 0.5 µM	> 10 µM				
Cc1cc([C@@H]2CC[C@@H](C)CN2C(=O)C(=O)Nc2cncc(C(N)=O)c2)ccc1F (single isomer, unassigned) [Compound 307]	> 0.5 µM	> 0.5 µM	> 0.5 µM	> 1 µM	> 1 µM	C (an IC50 ratio of less than 3 fold)							
COc1ncc(NC(=O)C(=O)N2C[C@H](C)CC[C@H]2c2cccs2)cc1C(N)=O (single isomer, unassigned) [Compound 310]	> 0.5 µM	> 0.5 µM	> 0.5 µM	> 1 µM	> 1 µM	C (an IC50 ratio of less than 3 fold)							
CNc1cccc([C@H]2CCCCN2C(=O)C(=O)Nc2cncc(C(N)=O)c2)c1 (single isomer, unassigned) [Compound 316]	> 0.5 µM	0.05 to 0.5 µM	> 0.5 µM	> 1 µM	> 1 µM	C (an IC50 ratio of less than 3 fold)							
COc1ncc(NC(=O)C(=O)N2CCCCC2C2CCCCC2)cc1C(N)=O (single isomer, unassigned) [Compound 317, 5-(2-(2-cyclohexylpiperidin-1-yl)-2-oxoacetamido)-2-methoxynicotinamide]	> 0.5 µM	> 0.5 µM	> 0.5 µM	> 1 µM		C (an IC50 ratio of less than 3 fold)				> 1 µM			
CNc1cccc([C@H]2CC[C@H](C)CN2C(=O)C(=O)Nc2cncc(C(N)=O)c2)c1 (single isomer, unassigned) [Compound 321]	> 0.5 µM	> 0.5 µM	> 0.5 µM	> 1 µM	> 1 µM	C (an IC50 ratio of less than 3 fold)							
COc1ncc(NC(=O)C(=O)N2C[C@@H](C)CC[C@H]2c2ccccc2)cc1C(N)=O (single isomer, unassigned) [Compound 322]	> 0.5 µM	> 0.5 µM	> 0.5 µM			B (an IC50 ratio greater than or equal to 3 fold but lower than 10 fold)					> 1 µM	> 1 µM	
Cc1cc([C@H]2CC[C@H](C)CN2C(=O)C(=O)Nc2cncc(C(N)=O)c2)cc(C)c1O (single isomer, unassigned) [Compound 326]	> 0.5 µM	> 0.5 µM	> 0.5 µM	> 1 µM	> 1 µM	C (an IC50 ratio of less than 3 fold)							
CC(=O)N1CCC(c2cccc([C@@H]3CC[C@@H](C)CN3C(=O)C(=O)Nc3cnc(N)c(C)c3)c2)CC1 (single isomer, unassigned) [Compound 331]	> 0.5 µM	> 0.5 µM	> 0.5 µM	> 1 µM	> 1 µM	C (an IC50 ratio of less than 3 fold)							
CC(=O)N1CCC(c2cccc([C@H]3CC[C@H](C)CN3C(=O)C(=O)Nc3cncc(C(N)=O)c3)c2)CC1 (single isomer, unassigned) [Compound 332]	> 0.5 µM	> 0.5 µM	> 0.5 µM	> 1 µM	> 1 µM	C (an IC50 ratio of less than 3 fold)							
Cc1cc(NC(=O)C(=O)N2CCCC[C@@H]2C2CCCC2)cnc1N (single isomer, unassigned) [Compound 336]	> 0.5 µM	> 0.5 µM	> 0.5 µM	> 1 µM	> 1 µM	C (an IC50 ratio of less than 3 fold)							
Cc1cc(NC(=O)C(=O)N2C[C@H](C)C[C@H](C)[C@H]2c2ccccc2)cnc1N (single isomer, unassigned) [Compound 343]	> 0.5 µM	> 0.5 µM	> 0.5 µM	> 1 µM	> 1 µM	C (an IC50 ratio of less than 3 fold)							
COc1ncc(NC(=O)C(=O)N2C[C@@H](C)CC[C@H]2C2CCCCC2)cc1C(N)=O (single isomer, unassigned) [Compound 371]	> 0.5 µM	> 0.5 µM	> 0.5 µM	> 1 µM	> 1 µM	C (an IC50 ratio of less than 3 fold)							
C[C@@H]1CC[C@@H](c2csc3ccccc23)N(C(=O)C(=O)Nc2cncc(C(N)=O)c2)C1 (single isomer, unassigned) [Compound 463]	0.05 to 0.5 µM	< 0.05 µM	0.05 to 0.5 µM	> 1 µM	0.1 to 1 µM	A (an IC50 ratio greater than or equal to 10 fold)							
CCc1cc(NC(=O)C(=O)N2C[C@@H](C)CC[C@@H]2c2cccc([C@H]3CCCN(C)C3)c2)cnc1N (single isomer, unassigned) [Compound 1285]			0.05 to 0.5 µM	0.1 to 1 µM		A (an IC50 ratio greater than or equal to 10 fold)	< 0.1 µM	< 0.05 µM					< 1 µM
